Test results taken from patent publication US7410996B2, “3-aryloxy/thio-2,3-substituted propanamines and their use in inhibiting serotonin and norepinephrine reuptake” (Eli Lilly and Company, priority 2002, dated 2008).
Where a name gives a salt, the structure may show the parent alone.

Experiments:
[1] = target: T1, human serotonin transporter (Homo sapiens, UniProt P31645); experiment: [3H]-citalopram scintillation proximity binding assay (serotonin binding assay); conditions: read-out: Ki (SERT)
T1 construct: isolate and amplify each of the three full-length cDNAs from an appropriate cDNA library; expressed in transfected cells; host or cells: HEK293 cells, stably transfected (pcDNA3.1-type vector); membrane preparation
From the text: (§1) Generation of Stable Cell-lines Expressing the Human Dopamine, Norepinephrine and Serotonin Transporters
(§2) Standard molecular cloning techniques were used to generate stable cell-lines expressing the human dopamine, norepinephrine and serotonin transporters. The polymerase chain reaction (PCR) was used in order to isolate and amplify each of the three full-length cDNAs from an appropriate cDNA library. Primers for PCR were designed using the following published sequence data:
Human serotonin transporter: GenBank L05568. Reference: Ramamoorthy S, Bauman A L, Moore K R, Han H, Yang-Feng T, Chang A S, Ganaphthy V and Blakely R D. Antidepressant- and cocaine-sensitive human serotonin transporter: Molecular cloning, expression, and chromosomal localization. Proceedings of the National Academy of Sciences of the USA (1993) volume 90, pages 2542-2546. […]
Membrane preparation is essentially similar to that for the norepinephrine transporter containing membranes as described above. […] The protein concentration of the membrane preparation was determined using a BCA protein assay reagent kit. […]
The microtitre plates were incubated at room temperature for 10 hours prior to reading in a Trilux scintillation counter. The results were analysed using an automatic spline fitting programme Multicalc, Packard, Milton Keynes, UK) to provide Ki (nM) values for each of the test compounds. […]

[2] = target: T2, human norepinephrine transporter (Homo sapiens, UniProt P23975); experiment: [3H]-nisoxetine scintillation proximity binding assay (norepinephrine binding assay); conditions: read-out: Ki (NET)
T2 construct: isolate and amplify each of the three full-length cDNAs from an appropriate cDNA library; expressed in transfected cells; host or cells: HEK-293 cells, stably transfected (pcDNA3.1-type vector); membrane preparation
From the text: as §1, §2
Human norepinephrine transporter: GenBank M65105. Reference: Pacholczyk T, Blakely, R D and Amara S G. Expression cloning of a cocaine- and antidepressant-sensitive human noradrenaline transporter. Nature (1991) volume 350, pages 350-354. […]
Cell pastes from large scale production of HEK-293 cells expressing cloned human norepinephrine transporters were homogenized in 4 volumes 50 mM Tris-HCl containing 300 mM NaCl and 5 mM KCl, pH 7.4. […] The protein concentration of the membrane preparation was determined using a bicinchoninic acid (BCA) protein assay reagent kit (available from Pierce). […]
The microtitre plates were incubated at room temperature for 10 hours prior to reading in a Trilux scintillation counter. The results were analysed using an automatic spline fitting programme (Multicalc, Packard, Milton Keynes, UK) to provide Ki values for each of the test compounds. […]

T1 sequence (P31645 whole entry): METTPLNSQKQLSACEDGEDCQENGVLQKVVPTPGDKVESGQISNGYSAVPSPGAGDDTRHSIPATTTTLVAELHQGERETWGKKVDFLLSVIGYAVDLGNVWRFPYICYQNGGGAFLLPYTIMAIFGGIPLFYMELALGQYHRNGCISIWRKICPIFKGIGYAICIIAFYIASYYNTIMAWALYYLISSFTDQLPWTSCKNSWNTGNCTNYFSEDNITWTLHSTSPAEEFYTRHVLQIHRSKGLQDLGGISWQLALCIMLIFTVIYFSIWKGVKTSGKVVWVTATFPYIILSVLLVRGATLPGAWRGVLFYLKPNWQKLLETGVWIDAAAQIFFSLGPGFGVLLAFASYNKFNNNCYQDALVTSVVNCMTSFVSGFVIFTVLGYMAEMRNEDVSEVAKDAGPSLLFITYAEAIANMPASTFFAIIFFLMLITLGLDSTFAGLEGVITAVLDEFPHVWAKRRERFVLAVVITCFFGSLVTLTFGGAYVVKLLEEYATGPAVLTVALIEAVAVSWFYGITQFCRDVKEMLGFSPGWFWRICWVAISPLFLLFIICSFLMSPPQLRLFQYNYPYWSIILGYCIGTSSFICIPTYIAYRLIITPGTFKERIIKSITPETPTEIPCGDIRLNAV
T2 sequence (P23975 whole entry): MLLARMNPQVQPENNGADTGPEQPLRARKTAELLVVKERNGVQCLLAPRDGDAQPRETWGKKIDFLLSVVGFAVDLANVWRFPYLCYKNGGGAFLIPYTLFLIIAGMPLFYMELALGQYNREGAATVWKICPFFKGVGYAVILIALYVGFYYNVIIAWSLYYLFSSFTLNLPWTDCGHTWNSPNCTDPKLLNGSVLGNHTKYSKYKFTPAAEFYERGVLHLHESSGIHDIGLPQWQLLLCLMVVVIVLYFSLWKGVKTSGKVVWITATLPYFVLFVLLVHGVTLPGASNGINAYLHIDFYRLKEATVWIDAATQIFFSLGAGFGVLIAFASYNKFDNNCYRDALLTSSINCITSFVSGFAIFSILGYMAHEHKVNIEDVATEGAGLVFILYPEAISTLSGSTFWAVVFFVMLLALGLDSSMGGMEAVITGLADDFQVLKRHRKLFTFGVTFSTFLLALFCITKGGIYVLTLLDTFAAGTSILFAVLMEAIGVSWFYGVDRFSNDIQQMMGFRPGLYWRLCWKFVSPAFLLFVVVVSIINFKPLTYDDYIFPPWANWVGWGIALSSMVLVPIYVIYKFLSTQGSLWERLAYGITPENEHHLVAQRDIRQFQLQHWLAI

Work on `CNC[C@@H](O)[C@@H](Oc1ccc(F)c2ccccc12)c1cccc(F)c1` [Example 32, (1S,2R)-1-(4-Fluoro-naphthalen-1-yloxy)-1-(3-fluoro-phenyl)-3-methylamino-propan-2-ol Hydrochloride] yielded a Ki [1] of 1.1 nM and a Ki [2] of 15.2 nM.
